Test results as given in patent publication US20220324770A1, “NITRIFICATION INHIBITORS” (The University of Melbourne, priority 2019, published 2022).

Key:
Horsham soil = test: Soil microcosm incubation (nitrification of applied ammonium), Horsham soil
Description: (§1) The soil used in this study was collected from four different locations in Victoria, Australia: (i) a wheat cropping soil from Horsham (36° 45′S, 142° 07′ E), (ii) a rotational cropping soil from Dahlen (36° 37′S, 142° 09′ E), (iii) a vegetable growing soil from Clyde (38° 08′S, 145° 20′ E), and (iv) a pasture soil from Terang (38° 15′S, 142° 52′E). In addition, a sugarcane cropping soil from South Johnstone in northern Queensland (17° 34′S, 145° 57′ E) was also studied. The water content of the soil was calculated before commencing each experiment, from samples that were oven-dried to constant weight. The soil's water-filled pore space (WFPS) was in the range 52%-61%, which is within the recommended 50-70% range for microbial activity due to oxygen and nutrient availability (Fichtner, T., et al., Applied Sciences, 2019, 9, 496).
(§2) Soil microcosm incubations were carried out in 250 ml polypropylene specimen containers (Sarstedt, Germany), containing 18.24 g oven dry-weight equivalent of soil. Microcosms were re-wetted and pre-incubated at the test temperature for seven days to revive soil microbial activity. Following pre-incubation, the remaining volume to reach the desired water-filled pore spaces (WFPS %) was applied as one of the following treatment solutions; (NH4)2SO4(Control), (NH4)2SO4+DMPP, or (NH4)2SO4+one of Compounds 1-23. Each treatment was applied in triplicate per soil type, so that n=3 at each time point.
(§3) Treatment solutions were prepared such that each microcosm received (NH4)2SO4 at a rate of 100 mg N per kg soil, Compounds 1-23 at 10 mol % of applied N, or DMPP at one of 1.5, 3.6 or 10 mol % of applied N, referred to as L-DMPP, M-DMPP or H-DMPP respectively.
(§4) The microcosms were incubated for 0, 3, 7, 14, 21 or 28 days, where day 0 samples were extracted following 1-hour incubation post-treatment. Soil microcosms were aerated and moisture levels were replenished based on weight loss every few days throughout the incubation period.
(§5) At the end of each incubation period, soil microcosms were destructively sampled by treatment with 2M KCl (100 mL). After shaking for 1 hour, soil-KCl solutions were filtered (Whatman 42) before storing the filtrates at −20° C. until the conclusion of the experiment. All KCl extracts were then analysed by Segmented Flow Analysis (San++, Skalar, Breda, The Netherlands) for the concentration of nitrogen from ammonium (NH4^+—N) and nitrogen from NO3 and NO2 (NOx^−—N) after appropriate dilutions. Results are reported as the mean of three replicates, errors reported are standard errors of the mean.
(§6) Nitrification calculations were performed as previously reported (Aulakh, M., et al., Biology and Fertility of Soils 2001, 33, 258-263; Mahmood, T., et al., Soil Research 2017, 55, 715-722) without correction for the initial baseline concentrations of NH4^+—N or NO3^− N in the untreated soil. For each treatment nitrified NH4^+—N (%) was calculated according to eqn. 1:
(§7) where [NH4^+—N]0 is the NH4^+—N concentration (in mg N kg^−1 soil) of the soil on day 0 and [NH4^+—N]t is the NH4^+—N concentration (in mg N kg^−1 soil) of the soil at a given time point t.
(§8) NOx^−—N accumulation rates (mg NOx^−—N/kg soil/day) over the 28-day incubation experiments were calculated for each treatment as in the following (eqn. 2):
(§9) [NOx^−—N]t=0 and [NOx^−—N]t=28 are the combined concentrations of nitrite (NO2) and nitrate (NO3) in the soil (in mg N kg^−1 soil) on day 0 and day 28, respectively.

Dahlen soil = test: Soil microcosm incubation (nitrification of applied ammonium), Dahlen soil; details: for NOx−—N accumulation rate / NOx−—N accumulation rate: effect of temperature (25° C. vs 35° C.): 28-day incubation; for Nitrified NH4+—N (%) Day 3 / Nitrified NH4+—N (%) Day 7 / Nitrified NH4+—N (%) Day 14 / Nitrified NH4+—N (%) Day 21 / Nitrified NH4+—N (%) Day 28: 10 mol %
Description: as §1, §2, §3, §4, §5, §6, §7, §8, §9

South Johnstone soil = test: Soil microcosm incubation (nitrification of applied ammonium), South Johnstone soil; details: South Johnstone soil, 25° C., days 21 and 28
Description: as §1, §2, §3, §4, §5, §6, §7

[1] = Horsham soil pH 8.8, 25° C., inhibitors 10 mol % of applied N
[2] = Horsham soil pH 8.8, 25° C., 10 mol %
[3] = Horsham soil pH 8.8, 35° C., 10 mol %
[4] = Horsham soil, 25° C., after 28 days
[5] = Dahlen soil, 25° C., after 28 days
[6] = Dahlen soil, 35° C., after 28 days
[7] = Table 4, Dahlen soil pH 7.3, 25° C.
[8] = Table 4, Dahlen soil pH 7.3, 35° C.
[9] = Dahlen soil, 25° C., Table 5 test
[10] = Table 5 (further comparative test), Dahlen soil pH 7.3, 25° C.
[11] = Table 5, Dahlen soil pH 7.3, 25° C.
[12] = Table 5, Dahlen soil pH 7.3, 35° C.

| SMILES | Nitrified NH4+—N (%) Day 3 (Horsham soil; [1]) [%] | Nitrified NH4+—N (%) Day 7 (Horsham soil; [2]) [%] | Nitrified NH4+—N (%) Day 14 (Horsham soil; [2]) [%] | Nitrified NH4+—N (%) Day 21 (Horsham soil; [2]) [%] | Nitrified NH4+—N (%) Day 28 (Horsham soil; [2]) [%] | Nitrified NH4+—N (%) Day 3 (Horsham soil; [3]) [%] | Nitrified NH4+—N (%) Day 7 (Horsham soil; [3]) [%] | Nitrified NH4+—N (%) Day 14 (Horsham soil; [3]) [%] | Nitrified NH4+—N (%) Day 21 (Horsham soil; [3]) [%] | Nitrified NH4+—N (%) Day 28 (Horsham soil; [3]) [%] | retaining NH4+ vs uninhibited control treatment (Horsham soil; [4]) | nitrification rates vs uninhibited control treatment (Horsham soil; Horsham soil, 35° C.) | NOx−—N accumulation rate (Dahlen soil; Dahlen soil, 25° C.) [mg NOx−—N/kg soil/day] | retaining NH4+—N vs uninhibited control treatment and DMPP (Dahlen soil; [5]) | NOx−—N accumulation rate: effect of temperature (25° C. vs 35° C.) (Dahlen soil; Dahlen soil) | NOx−—N accumulation rate (Dahlen soil; Dahlen soil, 35° C.) [mg NOx−—N/kg soil/day] | retaining NH4+ vs both DMPP treatment and control treatment (Dahlen soil; [6]) | Nitrified NH4+—N (%) Day 3 (Dahlen soil; [7]) [%] | Nitrified NH4+—N (%) Day 7 (Dahlen soil; [7]) [%] | Nitrified NH4+—N (%) Day 14 (Dahlen soil; [7]) [%] | other results |
| --- | --- | --- | --- | --- | --- | --- | --- | --- | --- | --- | --- | --- | --- | --- | --- | --- | --- | --- | --- | --- | --- |
| CCCCn1cc(CCC)nn1 [Compound 13, 1-butyl-4-propyl-1H-1,2,3-triazole] | 17.7 ± 3.9 | 23.4 ± 5.4 | 40.0 ± 4.3 | 47.2 ± 4.3 | 72.2 ± 4.8 | 3.5 ± 6.4 | 18.7 ± 5.5 | 48.0 ± 5.3 | 59.3 ± 10.3 | 61.2 ± 14.2 | performed statistically better | lower nitrification rates than the uninhibited control treatment | 2.5 | performed statistically better | least affected by the temperature change | 2.4 | performed statistically better | 10.6 ± 3.7 | 22.2 ± 50.2 | 24.9 ± 59.3 | rate of NOx−—N accumulation (Horsham soil; Horsham soil, 25° C., 28-day incubation): 2.8 mg NOx−—N/kg soil/day; retaining NH4+ and preventing NOx production (statistics vs control) (Horsham soil; Horsham soil, 35° C.): performed statistically better; rate of NOx−—N accumulation (Horsham soil; Horsham soil, 35° C., 28-day incubation): 2.8 mg NOx−—N/kg soil/day; NH4+—N consumption (Horsham soil; Horsham soil, 35° C., after 28 days): 61%; Nitrified NH4+—N (%) Day 21 (Dahlen soil; [7]): 32.6 ± 2.4%; Nitrified NH4+—N (%) Day 28 (Dahlen soil; [7]): 41.5 ± 1.2%; Nitrified NH4+—N (%) Day 3 (Dahlen soil; [8]): −1.2 ± 1.1%; Nitrified NH4+—N (%) Day 7 (Dahlen soil; [8]): 3.5 ± 1.3%; Nitrified NH4+—N (%) Day 14 (Dahlen soil; [8]): 9.2 ± 1.1%; Nitrified NH4+—N (%) Day 21 (Dahlen soil; [8]): 34.2 ± 2.4%; Nitrified NH4+—N (%) Day 28 (Dahlen soil; [8]): 33.6 ± 1.3% |
| CCCCc1cn(CCOC)nn1 [Compound 14, 1-(2-methoxyethyl)-4-butyl-1H-1,2,3-triazole] | 23.8 ± 3.0 | 38.7 ± 5.3 | 84.3 ± 5.6 | 93.4 ± 6.2 | 100 ± 3.2 | 13.2 ± 5.4 | 15.7 ± 5.7 | 39.8 ± 6.6 | 83.5 ± 7.2 | 79.7 ± 9.4 | – | – | – | – | – | – | – | – | – | – | NOx−—N accumulation: effect of temperature (25° C. vs 35° C.) (Horsham soil; Horsham soil, 28-day incubation): lower at the elevated temperature |
| C#CCCn1cc(CCC)nn1 [Compound 17, 1-(3-butyn-1-yl)-4-propyl-1H-1,2,3-triazole] | 13.5 ± 4.7 | 30.6 ± 5.5 | 35.1 ± 5.1 | 43.9 ± 5.7 | 65.8 ± 5.2 | −0.8 ± 3.4 | 8.5 ± 2.8 | 37.2 ± 2.3 | 75.7 ± 5.4 | 76.2 ± 2.1 | performed statistically better | lower nitrification rates than the uninhibited control treatment | 4.7 | performed statistically better | largest reduction in the accumulation rate | 2.4 | performed statistically better | 3.0 ± 1.3 | 10.4 ± 3.6 | 12.1 ± 3.2 | ammonia consumption (Dahlen soil; [6]): 38%; Nitrified NH4+—N (%) Day 21 (Dahlen soil; [7]): 22.2 ± 5.0%; Nitrified NH4+—N (%) Day 28 (Dahlen soil; [7]): 36.4 ± 6.8%; Nitrified NH4+—N (%) Day 3 (Dahlen soil; [8]): 6.3 ± 2.2%; Nitrified NH4+—N (%) Day 7 (Dahlen soil; [8]): 8.8 ± 1.9%; Nitrified NH4+—N (%) Day 14 (Dahlen soil; [8]): 17.7 ± 2.6%; Nitrified NH4+—N (%) Day 21 (Dahlen soil; [8]): 38.0 ± 2.8%; Nitrified NH4+—N (%) Day 28 (Dahlen soil; [8]): 37.6 ± 3.1% |
| CCCc1cn(CC(=O)OCC)nn1 [Compound 19, ethyl 2-(4-propyl-1H-1,2,3-triazol-1-yl)-acetate] | – | – | – | – | – | – | – | – | – | – | – | – | – | – | – | – | – | – | – | – | effectiveness among the treatments (NH4+—N retention, NOx−—N growth) (South Johnstone soil): least effective |
| C=CCOC(=O)Cn1cc(CCC)nn1 [Compound 20, prop-2-en-1-yl 2-(4-propyl-1H-1,2,3-triazol-1-yl)-acetate] | – | – | – | – | – | – | – | – | – | – | – | – | – | – | – | – | – | – | – | – | retaining NH4+—N levels by day 28 vs fertilised control (and DMPP) (Dahlen soil; [9]): performed statistically better than the fertilised control; retaining NH4+—N vs (NH4)2SO4-treated control by day 28 (Dahlen soil; Dahlen soil, 35° C., Table 5 test): remain highly effective; Nitrified NH4+—N (%) Day 3 (Dahlen soil; [10]): 1.9 ± 1.3%; Nitrified NH4+—N (%) Day 7 (Dahlen soil; [11]): 8.0 ± 0.6%; Nitrified NH4+—N (%) Day 14 (Dahlen soil; [11]): 15.2 ± 1.2%; Nitrified NH4+—N (%) Day 21 (Dahlen soil; [11]): 26.0 ± 2.1%; Nitrified NH4+—N (%) Day 28 (Dahlen soil; [11]): 31.8 ± 4.5%; Nitrified NH4+—N (%) Day 3 (Dahlen soil; [12]): 16.6 ± 4.5%; Nitrified NH4+—N (%) Day 7 (Dahlen soil; [12]): 5.0 ± 4.3%; Nitrified NH4+—N (%) Day 14 (Dahlen soil; [12]): 17.7 ± 3.8%; Nitrified NH4+—N (%) Day 21 (Dahlen soil; [12]): 17.1 ± 3.6%; Nitrified NH4+—N (%) Day 28 (Dahlen soil; [12]): 45.6 ± 8.3% |
| C#CCNC(=O)Cn1cc(CCC)nn1 [Compound 23, prop-2-yn-1-yl 2-(4-propyl-1H-1,2,3-triazol-1-yl)-acetamide] | – | – | – | – | – | – | – | – | – | – | – | – | – | – | – | – | – | – | – | – | retaining NH4+—N levels by day 28 vs fertilised control (and DMPP) (Dahlen soil; [9]): performed statistically better; Nitrified NH4+—N (%) Day 3 (Dahlen soil; [10]): 4.8 ± 2.9%; Nitrified NH4+—N (%) Day 7 (Dahlen soil; [11]): 15.7 ± 1.5%; Nitrified NH4+—N (%) Day 14 (Dahlen soil; [11]): 30.3 ± 0.8%; Nitrified NH4+—N (%) Day 21 (Dahlen soil; [11]): 35.9 ± 1.2%; Nitrified NH4+—N (%) Day 28 (Dahlen soil; [11]): 60.5 ± 1.0%; Nitrified NH4+—N (%) Day 3 (Dahlen soil; [12]): 15.6 ± 6.4%; Nitrified NH4+—N (%) Day 7 (Dahlen soil; [12]): 8.8 ± 5.6%; Nitrified NH4+—N (%) Day 14 (Dahlen soil; [12]): 24.0 ± 6.7%; Nitrified NH4+—N (%) Day 21 (Dahlen soil; [12]): 41.7 ± 4.7%; Nitrified NH4+—N (%) Day 28 (Dahlen soil; [12]): 64.6 ± 4.9% |
